Experimental data taken from PMC4684357, “Comparative Evaluation of the Antimicrobial Activity of Different Antimicrobial Peptides against a Range of Pathogenic Bacteria” (PLoS ONE, 2015).
Read-outs that look alike come from different tables or passages of the source. Residues, ends and D or L forms follow the SMILES beside them.

Experiments:
E. coli ATCC25922 [1] = format: cell-based, Escherichia coli
Text: (§1) The Yersinia ruckeri strain was kindly provided by Prof. Kurt Buchmann, University of Copenhagen, Faculty of Health and Medical Sciences, and the Flavobacterium psychrophilum strain was kindly provided by Prof. Inger Dalsgaard, DTU, Denmark. BW25113 is the Escherichia coli wild-type strain, a derivative of the F^-,λ^- E. coli K12 strain BD792 which was used in generating the KEIO collection. E. coli ATCC25922 is a clinical isolate, serotype O6 and is often used as control strain in antimicrobial susceptibility testing. All strains were grown in Mueller-Hinton-II medium, except L. monocytogenes which was grown in BHI medium and F. psychrophilum which was grown in TYES medium (Tryptone yeast extract plus salts). Incubation took place aerobically at 37°C, except for Y. ruckeri and A. salmonicida, which were grown aerobically at RT (20°C), C. jejuni NCTC11168 which was grown under microaerophilic conditions at 42°C and F. psychrophilum 1947 which was grown under aerobic conditions at 15°C. All plates were incubated for 18–20 hours, except the F. psychrophilum plates, which were incubated for 72 hours.
All plates were incubated for 18–20 hours, except the F. psychrophilum plates which were incubated for 72 hours.
All the MIC measurements were carried out in duplicate.

ATCC25922 ΔrfaE = format: cell-based, Escherichia coli; settings: E. coli ATCC25922 ΔrfaE; CLSI; triplicates
Text: as §1
(§2) The minimum inhibitory concentrations (MICs) of the AMPs were measured in 96-well microtiter plates according to the Clinical and Laboratory Standards Institute (CLSI, formerly National Committee for Clinical Laboratory Standards [NCCLS]). Briefly, liquid Mueller-Hinton-II medium containing increasing concentrations of AMPs is inoculated with a defined number of cells (approx. 10^5 CFUs/ml) in 96-well microtiter plates (polypropylene), whereas each plate also includes a positive growth control and a negative control (sterile control). After incubation, the MIC is determined by the lowest concentration showing no visible growth. All plates were incubated for 18–20 hours, except the F. psychrophilum plates which were incubated for 72 hours.
(§3) Construction of knock-out mutants of E. coli ATCC25922 were constructed using the λ-Red recombinase gene replacement system. Primers for amplification of the npt gene of pKD4 are listed in S1 Table. The correct double-crossover and recombination event was confirmed by primers listed in S1 Table and by sequencing. Finally, the kanamycin cassette was removed.

ATCC25922 ΔrfaC = format: cell-based, Escherichia coli; settings: E. coli ATCC25922 ΔrfaC; CLSI; triplicates
Text: as §1, §2, §3

ATCC25922 ΔrfaF = format: cell-based, Escherichia coli; settings: E. coli ATCC25922 ΔrfaF; CLSI; triplicates
Text: as §1, §2, §3

ATCC25922 ΔrfaG = format: cell-based, Escherichia coli; settings: E. coli ATCC25922 ΔrfaG; CLSI; triplicates
Text: as §1, §2, §3

E. coli ATCC25922 [2] = test system: E. coli ATCC25922
Description: as §2, with “hours. […]” for “hours.”

BW25113 ΔrfaG = format: cell-based, Escherichia coli; settings: E. coli BW25113 ΔrfaG; CLSI; triplicates
Text: as §1, §2

BW25113 ΔrfaE = format: cell-based, Escherichia coli; settings: E. coli BW25113 ΔrfaE; CLSI; triplicates
Text: as §1, §2

BW25113 ΔrfaF = format: cell-based, Escherichia coli; settings: E. coli BW25113 ΔrfaF; CLSI; triplicates
Text: as §1, §2

BW25113 ΔrfaC = format: cell-based, Escherichia coli; settings: E. coli BW25113 ΔrfaC; CLSI; triplicates
Text: as §1, §2

BW25113 wild-type = experiment: MIC in LPS backgrounds; format: cell-based, Escherichia coli; settings: E. coli BW25113 wild-type; CLSI; triplicates
Text: as §1, §2

trypsin = target: T1, trypsin (Bos taurus, UniProt P00760); experiment: Protease stability: MIC after incubation with trypsin; format: in vitro ADME; settings: for Antimicrobial Activity MIC: trypsin, protease:AMP 1:100 (w/w), trypsin-ultra reaction buffer, 37°C, test strain E. coli ATCC25922, triplicates
T1 construct: purchased NEB P8101
T1 sequence (P00760 24-246): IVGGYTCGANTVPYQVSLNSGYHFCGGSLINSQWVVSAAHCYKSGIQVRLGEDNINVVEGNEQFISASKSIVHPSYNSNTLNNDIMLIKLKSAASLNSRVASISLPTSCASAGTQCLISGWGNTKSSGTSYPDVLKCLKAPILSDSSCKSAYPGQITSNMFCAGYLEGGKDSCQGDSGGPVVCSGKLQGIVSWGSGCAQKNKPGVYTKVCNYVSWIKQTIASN
Description: as §2
(§4) AMPs were heated at 70°C or 90° for 5, 15 or 30 minutes. An untreated control, which was kept at RT, was used as a control. After incubation at 70°C or 90°C, the minimum inhibitory concentrations (MICs) of the peptides were measured in 96-well microtiter plates according the Clinical and Laboratory Standards Institute (CLSI, formerly National Committee for Clinical Laboratory Standards [NCCLS]) […] After incubation, the samples were cooked for 10 minutes at 90°C to inactivate the protease. Afterwards, the antimicrobial activity was determined by measuring the minimal inhibitory concentration (see Antimicrobial susceptibility testing)). E. coli ATCC25922 was used as a test strain.

proteinase K = target: T2, proteinase K (Parengyodontium album, UniProt P06873); experiment: Protease stability: MIC after incubation with proteinase K; format: in vitro ADME; settings: for Antimicrobial Activity MIC: proteinase K, protease:AMP 1:100 (w/w), 100 mM Tris-HCl pH 7.5, 37°C, test strain E. coli ATCC25922, triplicates
T2 construct: purchased NEB P8107S
T2 sequence (P06873 106-384): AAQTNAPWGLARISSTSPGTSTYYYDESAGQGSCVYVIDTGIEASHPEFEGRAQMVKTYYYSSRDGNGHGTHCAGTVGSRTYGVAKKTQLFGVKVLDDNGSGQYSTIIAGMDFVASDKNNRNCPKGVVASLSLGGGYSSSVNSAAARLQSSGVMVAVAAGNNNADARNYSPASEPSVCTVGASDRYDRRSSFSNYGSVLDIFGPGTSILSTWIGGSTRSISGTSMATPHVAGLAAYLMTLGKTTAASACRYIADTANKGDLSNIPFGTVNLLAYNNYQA
Description: as §2, §4

Structure (SMILES): CC[C@H](C)[C@H](NC(=O)[C@H](CC(C)C)NC(=O)[C@H](CCCCN)NC(=O)[C@H](CC(C)C)NC(=O)[C@H](CC(C)C)NC(=O)[C@H](CCCCN)NC(=O)[C@H](CCCNC(=N)N)NC(=O)[C@H](Cc1ccccc1)NC(=O)[C@H](CC(C)C)NC(=O)[C@H](CCCCN)NC(=O)[C@H](CCCNC(=N)N)NC(=O)[C@H](CC(C)C)NC(=O)[C@@H](N)CCCCN)C(=O)N[C@@H](CCCNC(=N)N)C(=O)N[C@@H](CCCCN)C(=O)N[C@@H](CC(C)C)C(=O)N[C@@H](CC(C)C)C(=O)N[C@@H](CCCNC(=N)N)C(=O)O [Cap11-1-18m^2] (H-KLRKLFRKLLKLIRKLLR-OH)
- Antimicrobial Activity MIC (E. coli ATCC25922 [1]): 32 µg/mL
- Antimicrobial Activity MIC (ATCC25922 ΔrfaE): 16 µg/mL
- Antimicrobial Activity MIC (ATCC25922 ΔrfaC): 16 µg/mL
- Antimicrobial Activity MIC (ATCC25922 ΔrfaF): 16 µg/mL
- Antimicrobial Activity MIC (ATCC25922 ΔrfaG): 16 µg/mL
- Antimicrobial Activity MIC (E. coli ATCC25922 [2]): 32 µg/mL
- Antimicrobial Activity MIC (BW25113 ΔrfaG): 8 µg/mL
- Antimicrobial Activity MIC (BW25113 ΔrfaE): 8 µg/mL
- Antimicrobial Activity MIC (BW25113 ΔrfaF): 8 µg/mL
- Antimicrobial Activity MIC (BW25113 ΔrfaC): 8 µg/mL
- Antimicrobial Activity MIC (BW25113 wild-type): 16 µg/mL

Structure (SMILES): CNC(C)C1CCC(N)C(OC2C(N)CC(N)C(OC3OCC(C)(O)C(NC)C3O)C2O)O1 (centres unmarked) [Gentamicin]
- antimicrobial activity after protease (in words) (trypsin; trypsin for 30 minutes, control antibiotic): retained its full antimicrobial activity
- Antimicrobial Activity MIC (trypsin; 0 min): 1 µg/mL
- Antimicrobial Activity MIC (trypsin; 0.5 min, then 10 min 90°C): 1 µg/mL
- Antimicrobial Activity MIC (trypsin; 2 min, then 10 min 90°C): 1 µg/mL
- Antimicrobial Activity MIC (trypsin; 5 min, then 10 min 90°C): 1 µg/mL
- Antimicrobial Activity MIC (trypsin; 15 min, then 10 min 90°C): 1 µg/mL
- Antimicrobial Activity MIC (trypsin; 30 min, then 10 min 90°C): 1 µg/mL
- antimicrobial activity after protease (in words) (proteinase K; proteinase K for 30 minutes, control antibiotic): retained its full antimicrobial activity
- Antimicrobial Activity MIC (proteinase K; 0 min): 1 µg/mL
- Antimicrobial Activity MIC (proteinase K; 0.5 min, then 10 min 90°C): 1 µg/mL
- Antimicrobial Activity MIC (proteinase K; 2 min, then 10 min 90°C): 1 µg/mL
- Antimicrobial Activity MIC (proteinase K; 5 min, then 10 min 90°C): 1 µg/mL
- Antimicrobial Activity MIC (proteinase K; 15 min, then 10 min 90°C): 1 µg/mL
- Antimicrobial Activity MIC (proteinase K; 30 min, then 10 min 90°C): 1 µg/mL

Structure (SMILES): CC[C@H](C)[C@H](NC(=O)[C@H](CCCCN)NC(=O)[C@H](Cc1c[nH]c2ccccc12)NC(=O)[C@H](CCCNC(=N)N)NC(=O)[C@@H](N)CCCNC(=N)N)C(=O)N[C@H](C(=O)N[C@H](C(=O)N[C@H](C(=O)N[C@@H](CCCNC(=N)N)C(=O)N[C@@H](Cc1c[nH]c2ccccc12)C(=O)N[C@@H](CCCNC(=N)N)C(=O)N[C@@H](CCCNC(=N)N)C(N)=O)[C@@H](C)CC)C(C)C)C(C)C [Sub5-NH2] (H-RRWKIVVIRWRR-NH2)
- Antimicrobial Activity MIC (E. coli ATCC25922 [1]): 4 µg/mL
- Antimicrobial Activity MIC (ATCC25922 ΔrfaE): 1 µg/mL
- Antimicrobial Activity MIC (ATCC25922 ΔrfaC): 1 µg/mL
- Antimicrobial Activity MIC (ATCC25922 ΔrfaF): 1 µg/mL
- Antimicrobial Activity MIC (ATCC25922 ΔrfaG): 1 µg/mL
- Antimicrobial Activity MIC (BW25113 ΔrfaG): 2 µg/mL
- Antimicrobial Activity MIC (BW25113 ΔrfaE): 2 µg/mL
- Antimicrobial Activity MIC (BW25113 ΔrfaF): 2 µg/mL
- Antimicrobial Activity MIC (BW25113 ΔrfaC): 2 µg/mL
- Antimicrobial Activity MIC (BW25113 wild-type): 4 to 8 µg/mL
